# Patent US10077268B2, “FXR agonists and methods for making and using” (Salk Institute for Biological Studies, priority 2014, dated 2018)
# Key:
# [1] = LC/MS quantification of serum fexaramine after PO or IP; assay type: in vivo, mice
# Experimental: FIG. 1D is a schematic diagram illustrating an experimental procedure used to evaluate fexaramine, where mice were treated with vehicle or fexaramine (100 mg/kg) via PO or IP injection, and LC/MS quantification of serum fexaramine was conducted five days later.
# FIG. 1E is a bar chart illustrating serum fexaramine concentrations after administration as described in FIG. 1D. Data represent mean values±STD. Statistical analysis was performed with the Student's t test (*p<0.05, **p<0.01).
# (§1) Upon exploration of the in vivo effects of fexaramine (Fex) administration, it was discovered that due to ineffectual absorption, oral (PO) and intraperitoneal (IP) drug delivery produced very different effects (FIGS. 1D and 1E).
# [2] = test system: normal chow-fed mice; test: Chronic oral treatment of normal chow-fed mice; assay type: in vivo
# Experimental: FIGS. 3A-3D are line graphs and a bar graph showing the effects of fexaramine administration in normal chow-fed mice. The mice were treated with vehicle (left bar) or fexaramine (100 mg/kg) (right bar) via PO for 5 weeks. Data represent the mean±STD. Statistical analysis as performed with the Student's t test (*p<0.05, **p<0.01).
# To investigate the physiological effects of intestinal FXR activation by fexaramine, mice were subjected to chronic fexaramine (100 mg/kg Fex) PO treatment for 5 weeks.
# [3] = test system: serum bile acid composition; test: Serum bile acid composition by mass spectrometry; assay type: in vivo, mice
# Experimental: Mice fed a HFD for 14 weeks were maintained on a HFD and treated with vehicle or fexaramine (100 mg/kg/day per os for 5 week). Serum bile acid composition was determined by mass spectrometry. N.D not determined.
# [4] = test system: FXR-null mice; test: HFD-fed FXR-null mice; assay type: in vivo; settings: 100 mg/kg 5 weeks
# Experimental: Data represent the mean±SD. Statistical analysis was performed with the Student's t test. *p<0.05, **p<0.01.
# [5] = test system: TGR5 null mice; test: HFD-fed TGR5-null mice; assay type: in vivo; settings: 100 mg/kg/day PO 5 weeks
# Experimental: HFD-fed TGR5-null mice were treated with vehicle or fexaramine (100 mg/kg os daily for 5 weeks with HFD, n=10). (A) Ileal FXR target gene expressions (B) Serum BA levels (C) Fasting glucose levels (D) Glucose tolerance test (E) Core body temperature (F) Oxygen consumption rate (G) Carbon dioxide production (H) Gene expression in BAT (I) Body weight curve (J) Body composition by MRI (K) Insulin Tolerance Test (L) Hepatic gene expression (M) Hepatic TG levels (N) and Gene expression in soleus of TGR5 knockout mice with and without fexaramine treatment. For bar graphs, vehicle is left bar, Fex is right bar. Data represent the mean±SD. Statistical analysis was performed with the Student's t test. *p<0.05, **p<0.01.
# To address this possibility, HFD-fed TGR5 null mice were chronically treated with Fex (100 mg/kg/day PO for 5 weeks). […] In particular, the anti-lipogenic effects of Fex in the liver appear to require TGR5 activation, as key hepatic lipogenic genes and liver triglyceride content were not affected by Fex treatment (FIGS. 11L, 11M).
# [6] = test system: DIO mice; test: Hyperinsulinemic-euglycemic clamp in DIO mice; assay type: in vivo
# Experimental: FIGS. 15I-15K are a line graph and two bar graphs showing the effect of fexaramine treatment on body weight, insulin-stimulated GDR, and fasting insulin levels. Mice were fed HFD for 14 weeks, and then administered daily oral injections of vehicle or fexaramine (100 mg/kg) for 3 weeks with HFD. The mice treated with fexaramine were initially heavier (by 2-3 grams). Three weeks after treatment, a clamp study was performed on the mice. Data represent the mean±STD. Statistical analysis was performed with the Student's t test (*p<0.05, **p<0.01).
# [7] = test system: FXR target gene expression; test: FXR target gene expression (qPCR) after acute PO or IP treatment; assay type: in vivo, C57BL/6J mice; settings: for FXR target genes (IBABP, OSTα, FGF15) in liver or kidney / FXR target genes (IBABP, OSTα, FGF15) in the intestine: PO
# Experimental: FIGS. 1A-1C are a comparative expression chart and two bar charts, respectively, illustrating increased levels of FXR target gene expression in the intestine relative to expression in the liver and kidney. 8 week-old C57BL/6J mice were treated with vehicle or fexaramine (100 mg/kg) via oral (PO) or intraperitoneal (IP) injection for three days (FIGS. 1A-1B) or five days (FIG. 1C).
# FXR target gene expression was analyzed by qPCR. Gene expression was normalized against a vehicle-treated group.
# FIG. 1F is a bar chart illustrating that orally delivered fexaramine is intestinally-restricted. Mice received vehicle or Fexaramine (100 mg/kg) via per os (PO) or intraperitoneal (IP) injection for 5 days. Expression of the FXR target gene SHP after PO or IP injection in selected tissues is shown.
# as §1
smiles,measurement,setting,value
COC(=O)/C=C/c1cccc(N(Cc2ccc(-c3ccc(N(C)C)cc3)cc2)C(=O)C2CCCCC2)c1 [fexaramine],serum Fex level after PO compared to IP,"[1]; acute PO vs IP, 100 mg/kg",10 % of IP levels
same,absorption after oral delivery,[1]; oral,poorly absorbed
same,glucose homeostasis in normal chow-fed mice,[2]; across a range of doses,no effects observed
same,"weight gain, basal metabolic activity and glucose tolerance","[2]; chow-fed, 100 mg/kg PO 5 weeks",indistinguishable from vehicle-treated mice
same,bile acid pool size,[3],reducing the bile acid pool size
same,fraction of lithocholic acid among circulating bile acids,[3],"increasing the fraction of the secondary bile acid, lithocholic acid"
same,fraction of taurocholic acid among circulating bile acids,[3],decreasing the fraction of taurocholic acid
same,ratio of unconjugated to conjugated cholic acid,[3]; 100 mg/kg PO 5 weeks,remarkably increased
same,Fex-induced changes in gene expression and improvements in metabolic homeostasis in FXR null mice,[4],abrogated
same,FXR target genes in the ileum of TGR5 null mice,[5],induced multiple FXR target genes
same,core body temperature and metabolic rate in TGR5 null mice,[5],somewhat blunted increases
same,fasting glucose levels and glucose tolerance in TGR5 null mice,[5],moderate improvements
same,key hepatic lipogenic genes and liver triglyceride content in TGR5 null mice,[5],not affected
same,serum BA levels in TGR5 null mice,[5],lowered serum BA levels
same,weight gain or insulin sensitivity in TGR5 null mice,[5],no significant changes
same,insulin-mediated suppression of HGP,[6]; compared to control DIO mice,marked increase
same,"basal HGP, GDR, IS-GDR, FFA suppression and fasting insulin levels",[6]; weight-matched cohorts,No differences
same,FXR target gene expression in the liver and kidney after IP injection,"[7]; IP, 100 mg/kg, five days",increases FXR target gene expression in the liver and kidney
same,induction of SHP in liver and kidney,"[7]; PO versus IP, 100 mg/kg for five days",only seen in liver and kidney after IP treatment
same,"FXR target genes (IBABP, OSTα, FGF15) in liver or kidney",[7]; 100 mg/kg,not in the liver or kidney
same,"FXR target genes (IBABP, OSTα, FGF15) in the intestine",[7]; 100 mg/kg,substantially enhances FXR target gene expression in the intestine
same,"FXR target genes (IBABP, OSTα, FGF15) in liver or kidney","[7]; 100 mg/kg, listed as Fex",failed to affect the expression of these genes in liver or kidney
same,"FXR target genes (IBABP, OSTα, FGF15) in the intestine","[7]; 100 mg/kg, listed as Fex",induced multiple FXR target genes in the intestine
same,induction of FXR target gene SHP throughout the intestine,"[7]; acute PO and IP, 100 mg/kg for five days",robust induction
